Experimental data from ChEMBL document CHEMBL1151547, “Enantioselective reduction of ethyl 3-methyl-2-oxobutanoate by an enzymatic system from callus of catharanthus roseus” (1994).

Legend:
[1] = test system: Catharanthus roseus; assay: Substrate specificity for NADPH-dependent dehydrogenase of catharanthus roseus membrane fraction; format: functional
[2] = test system: Catharanthus roseus; assay: Substrate specificity for NADPH-dependent dehydrogenase of catharanthus roseus supernatant fraction; format: functional

CCCCCCCCC(=O)C(F)(F)F
Activity [1]: 0 | Activity [2]: 0

CCOC(=O)CC(C)=O
Activity [1]: 0 | Activity [2]: 0

CCOC(=O)C(=O)CC
Activity [1]: 65 | Activity [2]: 68

CCC(=O)C(=O)O
Activity [1]: 0 | Activity [2]: 0

CCCCCC(=O)C(=O)OCC
Activity [1]: 50 | Activity [2]: 50

CCOC(=O)C(=O)C(C)C
Activity [1]: 100 | Activity [2]: 100

COC(=O)CC(=O)CCl
Activity [1]: 0 | Activity [2]: 12

O=CC(O)CO (stereo not drawn)
Activity [1]: 0 | Activity [2]: 0

O=C(c1ccccc1)C(F)(F)F
Activity [1]: 6 | Activity [2]: 65

CCOC(=O)C(C)C(C)=O (stereo not drawn)
Activity [1]: 0 | Activity [2]: 29

CC(C)CC(=O)C(=O)O [2-Oxoisohexanoate]
Activity [1]: 0 | Activity [2]: 0

CC(C)C(=O)C(=O)O [2-Oxoisovalerate]
Activity [1]: 0 | Activity [2]: 0

CC=O [ACETALDEHYDE]
Activity [1]: 0 | Activity [2]: 0

CCOC(=O)C(C)=O [ETHYL PYRUVATE]
Activity [1]: 59 | Activity [2]: 70
